From ChEMBL document CHEMBL4483862, “Open-source discovery of chemical leads for next-generation chemoprotective antimalarials” (2018)

System: Plasmodium berghei
Assay: Luciferase/luciferin-expressing antifolate-resistant parasites were used to infect a culture of HepG2 cells that were pre-incubated with compounds. Infected hepatocytes emit light due to the luciferase reaction. Assay results are presented as the percent inhibition of light emission compared to control. […]
Assay type: functional
Conditions: sporozoite; for IC90: read-out: LUCIFERASE INFECTION ASSAY - IC90
[1] = read-out: LUCIFERASE INFECTION ASSAY - IC50

For `O=S(=O)(NCCCCOc1ccc(Cl)cc1)c1ccc(S(=O)(=O)N2CCOCC2)cc1`, the IC50 [1] was 9.97 µM and the IC90 was > 10 µM.

With `CCS(=O)(=O)N1Cc2ccccc2CC1C(=O)Nc1nc2ccc(F)cc2s1` (stereo not drawn) the IC50 (PBLUC_HILL_SLOPE 0.63, PBLUC_R_SQUARED 0.752, read-out: LUCIFERASE INFECTION ASSAY - IC50) was 2.29 µM and the IC90 was > 10 µM.

In the case of `Cc1[nH]c2ccccc2c1C(=O)NCC1(c2ccccc2)CCC1`, the IC50 (HEPG2TOX_HILL_SLOPE 3.6, HEPG2TOX_R_SQUARED 0.416, PBLUC_HILL_SLOPE 3.04, PBLUC_R_SQUARED 0.598, read-out: LUCIFERASE INFECTION ASSAY - IC50) is reported as 7.33 µM and the IC90 is reported as > 10 µM.

`N#Cc1ccc(CN2CCN(c3ccc(-c4nc5ccccc5[nH]4)cn3)CC2)cc1` was tested, and the IC50 [1] was > 10 µM and the IC90 was > 10 µM.

`Cc1ccc(Oc2ccc(NC(=O)CCc3cccnc3)cc2)cc1` gave an IC50 (PBLUC_HILL_SLOPE 16.6, PBLUC_R_SQUARED 0.382, read-out: LUCIFERASE INFECTION ASSAY - IC50) of 8.37 µM and an IC90 of 9.55 µM.

For `Cc1c(Cl)c(CN2C(=O)C(=O)N(Cc3cccs3)C2=O)nc2ccccc12`, the IC50 [1] was > 10 µM and the IC90 was > 10 µM.

For `COc1ccc(-c2cc3c(cn2)nc(NCc2cccc(C)c2)n3C)cc1`, the IC50 (PBLUC_HILL_SLOPE 9.11, PBLUC_R_SQUARED 0.402, read-out: LUCIFERASE INFECTION ASSAY - IC50) was 9.46 µM and the IC90 was > 10 µM.

With `Cc1c(C)n(CCCN(C)C)c2ncn3nc(COc4ccccc4)nc3c12` the IC50 (PBLUC_HILL_SLOPE 0.81, PBLUC_R_SQUARED 0.755, read-out: LUCIFERASE INFECTION ASSAY - IC50) was 0.821 µM and the IC90 was > 8.72 µM.

For `c1ccc(CCNc2nccc3nc(-c4ccccc4)[nH]c23)cc1`, the IC50 (HEPG2TOX_HILL_SLOPE 7.38, HEPG2TOX_R_SQUARED 0.753, PBLUC_HILL_SLOPE 1.8, PBLUC_R_SQUARED 0.435, read-out: LUCIFERASE INFECTION ASSAY - IC50) was 1.21 µM and the IC90 was 4.09 µM.

With `CCOc1cc(/C=C/C(=O)c2cccs2)cc(Br)c1OC` the IC50 (HEPG2TOX_HILL_SLOPE 0.301, HEPG2TOX_R_SQUARED 0.1, PBLUC_HILL_SLOPE 0.921, PBLUC_R_SQUARED 0.199, read-out: LUCIFERASE INFECTION ASSAY - IC50) was > 10 µM and the IC90 was > 10 µM.

With `O=C(c1cn2ccccc2n1)N1CCN(C(c2ccccc2)c2ccccc2)CC1` the IC50 (PBLUC_HILL_SLOPE 4.26, PBLUC_R_SQUARED 0.0991, read-out: LUCIFERASE INFECTION ASSAY - IC50) was 6.51 µM and the IC90 was > 10 µM.

For `COc1cc2c(cc1NC(=O)c1cccc(F)c1)CCCC2`, the IC50 [1] was 4.59 µM and the IC90 was > 11 µM.

In the case of `COc1ccccc1-n1cnnc1SCC(=O)NC(C)c1ccc(CC(C)C)cc1` (stereo not drawn), the IC50 [1] is reported as > 10 µM and the IC90 is reported as > 10 µM.

For `CC1(C(=O)NC2CCN(S(C)(=O)=O)CC2)CC1(Cl)Cl` (stereo not drawn), the IC50 [1] was > 10 µM and the IC90 was > 10 µM.

In the case of `C=C1c2ccccc2N=C(SC(C)C(=O)Nc2ccccc2)N1C` (stereo not drawn), the IC50 (HEPG2TOX_HILL_SLOPE 0.246, HEPG2TOX_R_SQUARED 0.527, PBLUC_HILL_SLOPE 4.19, PBLUC_R_SQUARED 0.571, read-out: LUCIFERASE INFECTION ASSAY - IC50) is reported as 4.07 µM and the IC90 is reported as 6.88 µM.

For `CC(=O)Nc1cccc(-c2ccc3ncc(-c4ccccc4)n3n2)c1`, the IC50 (HEPG2TOX_HILL_SLOPE 0.716, HEPG2TOX_R_SQUARED 0.978, PBLUC_HILL_SLOPE 1, PBLUC_R_SQUARED 0.535, read-out: LUCIFERASE INFECTION ASSAY - IC50) was 3.87 µM and the IC90 was > 10 µM.

In the case of `CC(=O)Nc1cc(C(=O)CSc2ncnc3sccc23)ccc1O`, the IC50 [1] is reported as > 10 µM and the IC90 is reported as > 10 µM.

`Fc1ccc(Cc2ccc3ncc(-c4ccncc4)n3n2)cc1` was tested, and the IC50 (HEPG2TOX_HILL_SLOPE 3.58, HEPG2TOX_R_SQUARED 0.787, PBLUC_HILL_SLOPE 13.1, PBLUC_R_SQUARED 0.419, read-out: LUCIFERASE INFECTION ASSAY - IC50) was 8.32 µM and the IC90 was 9.84 µM.

Molecule `COc1ccc(-c2cnc3c(Nc4cccc(OC(F)(F)C(F)F)c4)nccn23)cc1` has an IC50 (HEPG2TOX_HILL_SLOPE 1.95, HEPG2TOX_R_SQUARED 0.977, PBLUC_HILL_SLOPE 27.6, PBLUC_R_SQUARED 0.693, read-out: LUCIFERASE INFECTION ASSAY - IC50) of 2.47 µM and an IC90 of 2.67 µM.

In the case of `O=C(NCCOc1ccc(Cl)cc1)c1ccc(=O)n(Cc2ccccc2)n1`, the IC50 [1] is reported as > 10 µM and the IC90 is reported as > 10 µM.

For `Oc1ccc(Br)cc1/C=N/c1cc(C(F)(F)F)ccc1NCCc1ccccc1`, the IC50 (PBLUC_HILL_SLOPE 12.2, PBLUC_R_SQUARED 0.511, read-out: LUCIFERASE INFECTION ASSAY - IC50) was > 7.12 µM and the IC90 was > 7.12 µM.

For `N=C1C(c2nc(-c3ccccc3)cs2)C(=O)CN1c1ccc2c(c1)OCCO2` (stereo not drawn), the IC50 (HEPG2TOX_HILL_SLOPE 0.297, HEPG2TOX_R_SQUARED 0.47, PBLUC_HILL_SLOPE 1.65, PBLUC_R_SQUARED 0.172, read-out: LUCIFERASE INFECTION ASSAY - IC50) was > 8.43 µM and the IC90 was > 8.43 µM.

In the case of `NC(=O)C1CCN(c2nc(/C=C/c3ccccc3)nc3sc4c(c23)CCCC4)CC1`, the IC50 (FFLUC_HILL_SLOPE 8.41, FFLUC_R_SQUARED 0.401, PBLUC_HILL_SLOPE 20.5, PBLUC_R_SQUARED 0.298, read-out: LUCIFERASE INFECTION ASSAY - IC50) is reported as 9.42 µM and the IC90 is reported as > 10 µM.

For `CCOC(=O)c1cc(NC(=O)c2ccc(Cl)c(S(=O)(=O)N(Cc3ccccc3)c3ccccc3OC)c2)cc(C(=O)OCC)c1`, the IC50 (FFLUC_HILL_SLOPE 3.02, FFLUC_R_SQUARED 0.375, read-out: LUCIFERASE INFECTION ASSAY - IC50) was > 10 µM and the IC90 was > 10 µM.

`O=C(NCc1cccc(Cl)c1)C1=COC2=NC(=O)N(Cc3cccc(Cl)c3)CCN12` was tested, and the IC50 [1] was > 10 µM and the IC90 was > 10 µM.

`CCC(=O)c1ccc(OCC(=O)N(C)C2CCc3ccccc32)cc1` (stereo not drawn) was tested, and the IC50 [1] was > 10 µM and the IC90 was > 10 µM.

For `CCOc1ccccc1NC(=O)c1nc(-c2ccccc2)n(-c2ccccc2)n1`, the IC50 (PBLUC_HILL_SLOPE 61.7, PBLUC_R_SQUARED 0.143, read-out: LUCIFERASE INFECTION ASSAY - IC50) was 3.28 µM and the IC90 was 3.4 µM.

`O=C(c1nn(-c2ccccc2)c2c1CCC2)N1CCn2c1nc1ccccc12` was tested, and the IC50 [1] was > 10 µM and the IC90 was > 10 µM.

`CCC(=O)Nc1ccc(CNC(=O)N2CCN(c3ccccc3C)CC2)cc1` showed an IC50 (PBLUC_HILL_SLOPE 9.1, PBLUC_R_SQUARED 0.639, read-out: LUCIFERASE INFECTION ASSAY - IC50) of 1.36 µM and an IC90 of 1.73 µM.

`Oc1ccc(/C=C/c2ccc3cccc(O)c3n2)cc1` was tested, and the IC50 (HEPG2TOX_HILL_SLOPE 13.8, HEPG2TOX_R_SQUARED 0.969, PBLUC_HILL_SLOPE 21.8, PBLUC_R_SQUARED 0.339, read-out: LUCIFERASE INFECTION ASSAY - IC50) was 4.58 µM and the IC90 was 5.07 µM.

`Nc1cccc(-c2ccc3ncc(-c4cccc(C(F)(F)F)c4)n3n2)c1` showed an IC50 [1] of 1.48 µM and an IC90 of 2.09 µM.

With `CNC(=O)c1ccc(CN(C2CC2)S(=O)(=O)c2ccc(C)cc2C)cc1` the IC50 (PBLUC_HILL_SLOPE 2.19, PBLUC_R_SQUARED 0.255, read-out: LUCIFERASE INFECTION ASSAY - IC50) was 2.97 µM and the IC90 was 8.11 µM.

With `Cc1ccc(S(=O)(=O)N2CCCCC2)cc1NC(=O)C[N+]12CCN(CC1)CC2` the IC50 [1] was > 10 µM and the IC90 was > 10 µM.

For `Cc1ccc(C(=O)CN2C(=O)C(=O)N(C)C2=O)cc1C`, the IC50 [1] was > 10 µM and the IC90 was > 10 µM.
